Results on seven sequences are retold here after article PMC10056643, “New Bioactive Peptides from the Mediterranean Seagrass Posidonia oceanica (L.) Delile and Their Impact on Antimicrobial Activity and Apoptosis of Human Cancer Cells” (International Journal of Molecular Sciences, 2023).

Where two headings read alike, the source gives them in different places. Where no end group is shown, it is not given here. A value given as a limit tells only on which side of the number the result lay.

The test system of one test is HepG2 cells. It is filed as cell-based, human. The conditions noted are these: for Activity on HepG2 cells (in words): HepG2, discussion statement; for IC50 (cell viability): 24 h. How it is done: HepG2 human hepatic cancer cells (taken from laboratory stocks) were routinely grown in high glucose–DMEM medium with the addition of 10% fetal calf serum (Life Technologies, Carlsbad, CA, USA) and antibiotics (100 U/mL penicillin and 100 μg/mL streptomycin; Life Technologies), at 37 °C in a 5% CO2 atmosphere.
For IC50 determination, cells undergoing exponential growth were seeded at a concentration of 5500/well in 96-well plates, allowed to adhere overnight, and then grown in control conditions or exposed to different concentrations of natural and synthetic peptides for 24 h. The number of viable cells was determined through the trypan blue exclusion test. The cell viability ratio in each experimental condition was determined as the ratio between unstained treated cells and controls, and the half maximal inhibitory concentrations (IC50) for peptides #7, #3d, and #7d were evaluated using the CompuSyn software.

The next test has as its system E. faecalis ATCC 29212. Format: cell-based, Enterococcus faecalis. From the text:
(§1) Four bacterial strains and one fungal strain were employed in this study: S. aureus ATCC 25923, P. aeruginosa ATCC 15442, E. coli ATCC 25922, E. faecalis ATCC 29212, and C. albicans ATCC 10231. The media used for microbiological assays were Tryptic Soy Broth (TSB, Sigma-Aldrich, Merck-Life Sciences S.r.l., Milan, Italy), Tryptic Soy Agar (TSA), Mueller Hinton II (Sigma-Aldrich, Merck-Life Sciences S.r.l., Milan, Italy), and Sabouraud medium for the yeast strain.
(§2) Polypeptide-enriched extracts derived from green leaves and rhizomes of P. oceanica were lyophilized and resuspended in ultrapure water in order to obtain protein concentrations of 30 μg/mL and 26 μg/mL, respectively. The MIC values of the extracts were assessed through a previously described micro-method based on serial dilution (1:2) of the extracts, using Mueller Hinton II (MH II) and Sabouraud (for C. albicans) media in 96-well microplates and starting from 50% v/v to 1.5% v/v for a final volume equal to 100 μL. A microbial suspension of 10 μL (5 × 10^6 CFU/mL) derived from a bacterial culture grown at 37 °C for 24 h on Tryptic Soy Agar (TSA) in 5 mL of NaCl 0.9%, whose turbidity was similar to the 0.5 McFarland standard, was added to a 96-well plate followed by incubation at 37 °C for 24 h. […] In addition, a positive growth control (broth with bacterial inoculum to compare the growth of the cells with samples) and a sample control (extract solution without bacterial inoculum to verify the absorbance of the samples at various tested concentrations) were also included.
(§3) The same procedure and media were also used to evaluate the antimicrobial activity of synthetic peptides #2, #3, #5, and #7, as well as of their derivatives. In particular, the synthetic peptides and their derivatives were dissolved in ultrapure water with the goal of achieving a stock solution of 5 mg/mL. Work solutions of 250 μg/mL of each synthetic peptides and derivatives were prepared in MH II and Sabouraud, being tested in 96-well microplates after serial dilution (1:2). Each assay was performed in triplicate.

In a further test the test system is E. coli ATCC 25922. It is filed as cell-based, Escherichia coli.
From the text: as §1, §2, §3

In test [1] the test system is P. aeruginosa ATCC 15442. It is filed as cell-based, Pseudomonas aeruginosa.
From the text: as §1, §2, §3

The test system of a further test is S. aureus ATCC 25923. Format: cell-based, Staphylococcus aureus.
From the text: as §1, §2, §3

The subject of a further test is C. albicans ATCC 10231. Format: cell-based, Candida albicans.
From the text: as §1, §2, §3

Test [2] deals with P. aeruginosa ATCC 15442. Format: cell-based, Pseudomonas aeruginosa. The note with it: crystal violet. As to the method:
Sub-MIC concentrations of natural extracts and synthetic peptides were tested to evaluate their interference with the growth as a sessile community of S. aureus ATCC 25923, P. aeruginosa ATCC 15442 and C. albicans ATCC 10231, as previously reported. Bacterial strains or fungal strains were incubated in test tubes containing TSB or Sabouraud (5 mL) and 2% v/v glucose at 37 °C for 24 h. Then, a 2.5 μL microbial suspension was added to each well, containing 200 μL of TSB or Sabouraud broth with 2% w/v glucose.. Aliquots of sub-MIC concentrations of natural extracts of P. oceanica or of chemically synthesized peptides were directly added to the wells, and the plates were incubated at 37 °C for 24 h. After biofilm formation, the wells were washed twice with sterile NaCl 0.9% and stained with 200 μL of 0.1% v/v crystal violet solution for 30 min at 37 °C [70]. Excess solution was discharged, and the plates were washed twice using tap water. Lastly, each stained well was processed by adding 200 μL of ethanol to solubilize the dye. The OD was read at a wavelength of 600 nm using a microplate reader (Glomax®-Multi Detection System, Promega s.r.l., Milan, Italy). […] The percentage of biofilm inhibition formation was determined through the following formula: % Inhibition = [(OD growth − OD sample)/OD growth control] × 100. […]

The mark [3] stands for this setting: chemically synthesized peptide, maximum tested concentration 250 μg/mL, Mueller Hinton II, triplicate.

As a reminder, the MIC is the lowest concentration found to suppress growth.

On to “EETFHGVL [Peptide #2, natural peptide EETFHGVL from green leaves extract, chemically synthesized]”, for which the “Activity on HepG2 cells (in words)” value with HepG2 cells was “lack of activity”.

As to GEFALCKATK [Peptide #7d], the MIC against E. faecalis ATCC 29212 (ATCC 29212, 24 h) was over 250 µg/mL; against E. coli ATCC 25922 (ATCC 25922, 24 h) it was over 250 µg/mL; against P. aeruginosa ATCC 15442 [1] (ATCC 15442, 24 h) it was over 250 µg/mL; against S. aureus ATCC 25923 (ATCC 25923, 24 h), over 250 µg/mL; against C. albicans ATCC 10231 (ATCC 10231, 24 h) it was over 250 µg/mL. The “IC50 (cell viability)” value in the test with HepG2 cells turned out to be 0.108 µg/mL.

Regarding GEFALCSAKT [Peptide #7], the “IC50 (cell viability)” value in the test on HepG2 cells was 0.329 µg/mL.

In the case of IVAKVGSA [5d], the minimal inhibitory concentration (MIC) against E. faecalis ATCC 29212 (setting [3]) was over 250 µg/mL; with E. coli ATCC 25922 (setting [3]), over 250 µg/mL; against P. aeruginosa ATCC 15442 [1] (setting [3]), over 250 µg/mL; against S. aureus ATCC 25923 (setting [3]), over 250 µg/mL; in the test on C. albicans ATCC 10231 (chemically synthesized peptide, maximum tested concentration 250 μg/mL, Sabouraud, triplicate), over 250 µg/mL. Also, the “Percentage of inhibition of biofilm formation” value in the test on P. aeruginosa ATCC 15442 [2] (maximum tested concentration 200 μg/mL) is 57.2%. The BIC50 with P. aeruginosa ATCC 15442 [2] (peptide, AAT Bioquest IC50 calculator) was 70.7 µg/mL.

For “IVASVGSA [Peptide #5, natural peptide IVASVGSA from rhizome extract, chemically synthesized]”, the “Activity on HepG2 cells (in words)” value in the test with HepG2 cells is “inability of peptide #5 to exert any biological role”.

Consider RKTFWGVL [Peptide #2d], for which the MIC against E. faecalis ATCC 29212 (ATCC 29212, 24 h) is over 250 µg/mL; against E. coli ATCC 25922 (ATCC 25922, 24 h), over 250 µg/mL; with P. aeruginosa ATCC 15442 [1] (ATCC 15442, 24 h), over 250 µg/mL; in the test with S. aureus ATCC 25923 (ATCC 25923, 24 h) it was over 250 µg/mL; in the test on C. albicans ATCC 10231 (ATCC 10231, 24 h) it was over 250 µg/mL.

For WVVRLNAPGKK [Peptide #3d], the minimum inhibitory concentration (MIC) against E. faecalis ATCC 29212 (ATCC 29212, 24 h) is over 250 µg/mL; in the test with E. coli ATCC 25922 (ATCC 25922, 24 h) it was over 250 µg/mL; against P. aeruginosa ATCC 15442 [1] (ATCC 15442, 24 h), over 250 µg/mL; in the test with S. aureus ATCC 25923 (ATCC 25923, 24 h) it was over 250 µg/mL; in the test on C. albicans ATCC 10231 (ATCC 10231, 24 h) it was over 250 µg/mL. Further, the “IC50 (cell viability)” value in the test with HepG2 cells is 0.41 µg/mL.
